Format in all cases: in vivo
The subject of test [1] is barnyardgrass (Echinochloa crus-galli L.). Kind of test: Test Example 18: pot, soil treatment, metobromuron + chlorpropham. The note with it: soil, read-out: Growth inhibition rate of barnyardgrass (%) Measured value. From the text: (§1) When the herbicidal activity in a case where two active ingredients are combined, is larger than the simple sum of the respective herbicidal activities of the two active ingredients (the expected activity), it is called a synergistic effect. The activity expected by the combination of two active ingredients can be calculated as follows (Colby S. R., “Weed”, vol. 15, p. 20-22, 1967). E=α+β−(α×β[…]) where α: growth inhibition rate when treated with x (g/ha) of herbicide X, • β: growth inhibition rate when treated with y (g/ha) of herbicide Y, • E: growth inhibition rate expected when treated with x (g/ha) of herbicide X and y (g/ha) of herbicide Y.
(§2) On the 19th day after treatment, the state of growth of barnyardgrass was visually observed and evaluated in accordance with the following standards. The growth inhibition rate (%) [measured value] and the growth inhibition rate (%) [calculated value] calculated by the Colby's method, are shown in Table 2.
(§3) Growth inhibition rate (%)=inhibition rate) (%) of 0 (equivalent to the non-treated area) to 100 (complete kill)
Soil was put into a 1/300,000 ha pot, and seeds of barnyardgrass (Echinochloa crus-galli L.) were sown. […]
On the 26th day after treatment, the state of growth of barnyardgrass was visually observed and evaluated in the same manner as in Test Example 1.

The test system of test [2] is spotted knotweed (Polygonum lapathifolium L.). Description: Test Example 2: soybean field, soil treatment, metobromuron + S-metolachlor. The conditions noted are these: Persicaria lapathifolia, soil, read-out: Growth inhibition rate of spotted knotweed (%) Measured value.
Text: as §1, §2
(§4) Growth inhibition rate (%)=inhibition rate) (%) of 0 (equivalent to the non-treated area) to 100 (complete kill) […]
On the 50th day after treatment, the state of growth of spotted knotweed was visually observed and evaluated in the same manner as in Test Example 1.

A further test relates to polygonaceae weeds. Kind of test: Test Example 10: corn field, soil treatment, metobromuron + pendimethalin. The note with it: soil, read-out: Growth inhibition rate of Polygonaceae weeds (%) Measured value.
Text: as §1, §2, §4
On the 49th day after treatment, the state of growth of polygonaceae weeds which occurred naturally, was visually observed and evaluated in the same manner as in Test Example 1, The results are shown in Table 11.

In test [3] the test system is common lambsquarters (Chenopodium album L.). Kind of test: Test Example 30: pot, soil treatment, metobromuron + thiobencarb. The note with it: soil, read-out: Growth inhibition rate of common lambsquarters (%) Measured value.
Text: as §1, §2, §3
Soil was put into a 1/300,000 ha pot, and seeds of common lambsquarters (Chenopodium album L.) were sown. On the day after seeding, predetermined amounts of SC containing metobromuron as active ingredient (same as in Test Example 1) and EC containing thiobencarb as active ingredient (trade name: Saturn NYUZAI, manufactured by KUMIAI CHEMICAL INDUSTRY Co., Ltd.) were diluted with water corresponding to 1,000 L per hectare and applied for soil treatment.
On the 20th day after treatment, the state of growth of common lambsquarters was visually observed and evaluated in the same manner as in Test Example 1.

For the compound `CON(C)C(=O)Nc1ccc(Br)cc1` [Metobromuron, 3-(4-bromophenyl)-1-methoxy-1-methylurea], the inhibition at 188 g/ha in test [1] came out at 0%. Also, the results for the inhibition at 1000 g/ha (in test [2]; with polygonaceae weeds) were 58% and 30%, respectively. Further, in test [3], the inhibition at 250 g/ha came to 78%.

One may read the inhibition as how much of the control response was suppressed.

Values taken from patent publication US9993001B2, “Herbicidal composition” (ISHIHARA SANGYO KAISHA, LTD., priority 2014, dated 2018).
